In patent publication US20100240642A1, “1H-Indole-2-Carboxylic Acid Derivatives Useful As PPAR Modulators” (SMITHKLINE BEECHAM CORPORATION, priority 2006, published 2010):

Each compound was assayed against T1, hPPARγ receptor (Homo sapiens, UniProt P37231) (assay: PPARγ Cell-based luciferase assay). Conditions: CV-1 cells transfected with GAL4-hPPARγ LBD and UAStkLuc; at concentrations of 10^−6 M or less; read-out: agonism of the hPPARγ receptor (activation relative to full agonist rosiglitazone).
T1 construct: expressed in transfected cells; host or cells: CV-1 (African Green Monkey kidney, ATCC CCL-70)
T1 sequence (P37231 172-475 isoform P37231-2): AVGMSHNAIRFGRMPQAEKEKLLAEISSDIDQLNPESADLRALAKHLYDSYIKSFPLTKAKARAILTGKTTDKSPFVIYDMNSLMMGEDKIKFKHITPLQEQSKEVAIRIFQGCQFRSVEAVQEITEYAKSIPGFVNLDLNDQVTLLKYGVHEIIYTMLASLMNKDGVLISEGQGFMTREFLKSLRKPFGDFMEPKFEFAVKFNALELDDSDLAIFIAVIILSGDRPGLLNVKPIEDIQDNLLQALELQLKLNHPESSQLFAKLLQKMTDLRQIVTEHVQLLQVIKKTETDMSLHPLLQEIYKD
Excerpt: Plasmids—PCR primers containing Kpnl and BamHI restriction sites were used to amplify PPARγ ligand binding domain (LBD) fragment (172-475) from a full-length human clone. The LBD fragment was ligated into the multiple cloning site of pFA-CMV (Stratagene). The resulting construct (pFA-CMV-GAL4-hPPARγLBD carried a fusion of the LBD with the yeast-derived GAL4 DNA-binding domain under the control of the CMV immediate early promoter. Reporter construct UAStkLuc carries a single 17 bp (CGGAGTACTGTCCTCCG) upstream activating sequence (UAS), the tk minimal promoter, and the firefly luciferase gene. The integrity of each construct was confirmed by diagnostic restriction digestion and by sequencing. Plasmid DNA was prepared using Qiagen Maxi-Prep kits.
PPARγ Cell-based luciferase assay—African Green Monkey kidney cell line CV-1 (ATCC CCL-70) was maintained in Dulbecco's Modified Eagle's Medium (D-MEM) containing 10% fetal bovine serum, 2 mM glutamine, and 1% penicillin/streptomycin (pen/strep). In preparation for luciferase assays, CV-1 cells were grown in charcoal-stripped cell medium containing D-MEM/F-12 medium supplemented with 5% or 3% dextran-treated/charcoal-stripped (CS) fetal bovine serum, 2 mM glutamine, with or without 1% pen/strep, as described below. CS fetal bovine serum was purchased from Hyclone; all other cell culture reagents were from Gibco.
The luciferase protocol is a multi-day procedure. On day 1, confluent cells in maintenance medium were subcultured 1:10 into T-175 cm^2 flasks containing 50 mL of 3% CS medium with pen/strep. These flasks were allowed to incubate at 5% CO2 and 37° C. for 72 hours.
Cells were harvested by trypsinization and then transfected using FuGENE (Roche) according to the manufacturer's specifications. Briefly, each transfection contained 0.55 μg pFA_CMV_GAL4_hPPARγ_LBD plasmid, 10.9 μg UAStkLUC, and 24 μg pBluescript (carrier DNA). Plasmid DNA was mixed with FuGENE in OptiMEM-1 medium and incubated for 30 min at room temperature. During this incubation, cells were harvested into 3% CS medium without pen-strep and dispensed at 14 million cells per T-175 cm^2 flask. Transfection mixes were added to the flasks and incubated overnight at 5% CO2 and 37° C.
Transfected cells were added to 384-well plates containing pharmacological agents. Rosiglitazone standard was reconstituted in DMSO at 1 mM. For 11-point dose-response experiments, the compounds were 3-fold serially diluted in DMSO and then stamped to 384-well assay plates (NUNC, catalog #164564) at 0.5 μL/well using a Beckman FX. DMSO and agonist control compound Rosiglitazone (1 mM) were each stamped at 0.5 μL/well to columns 23 and 24, respectively, of the 384-well plates. Transfected cells were harvested in 5% CS medium with pen/strep and dispensed at 10,000 cells/well (50 μL) onto the prepared 384-well compound plates using a Titertek Multidrop. Following overnight incubation at 5% CO2 and 37° C., Steady-Glo reagent (Promega) was added to the assay plates using a Multidrop. Plates were incubated for 10 min to ensure complete cell lysis and read in a ViewLux (PerkinElmer). […] Partial agonism is defined here as 20-80% activation (relative to full agonist rosiglitazone) at concentrations of 10^−6 M or less.

Emax, 20 to 80%:
CC(C)(C)c1ccc(-c2c(C(=O)O)n(Cc3cc(OCc4ccccc4)cc(OCC4CC4)c3)c3ccccc23)cc1 [Example 1, 1-({3-[(cyclopropylmethyl)oxy]-5-[(phenylmethyl)oxy]phenyl}methyl)-3-[4-(1,1-dimethylethyl)phenyl]-1H-indole-2-carboxylic acid]
CC(C)(C)c1ccc(-c2c(C(=O)O)n(Cc3cc(O)cc(OCC4CC4)c3)c3ccccc23)cc1 [Example 3, 1-({3-[(cyclopropylmethyl)oxy]-5-hydroxyphenyl}methyl)-3-[4-(1,1-dimethylethyl)phenyl]-1H-indole-2-carboxylic acid]
COc1cc(Cn2c(C(=O)O)c(-c3ccc(C(C)(C)C)cc3)c3ccccc32)cc(OCC2CC2)c1 [Example 4, 1-{[3-[(cyclopropylmethyl)oxy]-5-(methyloxy)phenyl]methyl}-3-[4-(1,1-dimethylethyl)phenyl]-1H-indole-2-carboxylic acid]
CC(C)(C)c1ccc(-c2c(C(=O)O)n(Cc3cc(OCC4CC4)cc(OCC4CC4)c3)c3ccccc23)cc1 [Example 5, 1-({3,5-bis[(cyclopropylmethyl)oxy]phenyl}methyl)-3-[4-(1,1-dimethylethyl)phenyl]-1H-indole-2-carboxylic acid]
CC(C)CCOc1cc(Cn2c(C(=O)O)c(-c3ccc(C(C)(C)C)cc3)c3ccccc32)cc(OCC2CC2)c1 [Example 6, 1-({3-[(cyclopropylmethyl)oxy]-5-[(3-methylbutyl)oxy]phenyl}methyl)-3-[4-(1,1-dimethylethyl)phenyl]-1H-indole-2-carboxylic acid]
CC(C)(C)c1ccc(-c2c(C(=O)O)n(Cc3cccc(-c4ccc(C(=O)O)cc4)c3)c3ccccc23)cc1 [Example 7, 1-[(4′-carboxy-3-biphenylyl)methyl]-3-[4-(1,1-dimethylethyl)phenyl]-1H-indole-2-carboxylic acid]
CC(C)(C)c1ccc(-c2c(C(=O)O)n(Cc3cccc(-c4ccc(OCc5ccccc5)cc4)c3)c3ccccc23)cc1 [Example 8, 3-[4-(1,1-dimethylethyl)phenyl]-1-({4′-[(phenylmethyl)oxy]-3-biphenylyl}methyl)-1H-indole-2-carboxylic acid]
CC(C)(C)c1ccc(-c2c(C(=O)O)n(Cc3cccc(-c4ccc(O)cc4)c3)c3ccccc23)cc1 [Example 9, 3-[4-(1,1-dimethylethyl)phenyl]-1-[(4′-hydroxy-3-biphenylyl)methyl]-1H-indole-2-carboxylic acid]
Cc1ccc(-c2ccc(O)cc2)cc1Cn1c(C(=O)O)c(-c2ccc(C(C)(C)C)cc2)c2ccccc21 [Example 10, 3-[4-(1,1-dimethylethyl)phenyl]-1-[(4′-hydroxy-4-methyl-3-biphenylyl)methyl]-1H-indole-2-carboxylic acid]
Cc1ccc(-c2ccc(OC(C)(C)C(=O)O)cc2)cc1Cn1c(C(=O)O)c(-c2ccc(C(C)(C)C)cc2)c2ccccc21 [Example 12, 1-({4′-[(1-carboxy-1-methylethyl)oxy]-4-methyl-3-biphenylyl}methyl)-3-[4-(1,1-dimethylethyl)phenyl]-1H-indole-2-carboxylic acid]
COc1ccc(-c2ccc(C)c(Cn3c(C(=O)O)c(-c4ccc(C(C)(C)C)cc4)c4ccccc43)c2)cc1 [Example 13, 3-[4-(1,1-dimethylethyl)phenyl]-1-{[4-methyl-4′-(methyloxy)-3-biphenylyl]methyl}-1H-indole-2-carboxylic acid]
CC(=O)c1ccc(-c2c(C(=O)O)n(Cc3cc(-c4ccc(C(=O)O)cc4)ccc3C)c3ccccc23)cc1 [Example 14, 3-(4-acetylphenyl)-1-[(4′-carboxy-4-methyl-3-biphenylyl)methyl]-1H-indole-2-carboxylic acid]
CC(C)(C)c1ccc(-c2c(C(=O)O)n(Cc3cc(OCC4CC4)cc(-c4ccc(C(=O)O)cc4)c3)c3ccccc23)cc1 [Example 15, 1-({4′-carboxy-5-[(cyclopropylmethyl)oxy]-3-biphenylyl}methyl)-3-[4-(1,1-dimethylethyl)phenyl]-1H-indole-2-carboxylic acid]
COc1ccc(-c2c(C(=O)O)n(Cc3cccc(-c4ccc(O)cc4)c3)c3ccccc23)cn1 [Example 16, 1-[(4′-hydroxy-3-biphenylyl)methyl]-3-[6-(methyloxy)-3-pyridinyl]-1H-indole-2-carboxylic acid]
CSc1cccc(-c2ccc(C)c(Cn3c(C(=O)O)c(-c4ccc(C(C)(C)C)cc4)c4ccccc43)c2)c1 [Example 17, 3-[4-(1,1-dimethylethyl)phenyl]-1-{[4-methyl-3′-(methylthio)-3-biphenylyl]methyl}-1H-indole-2-carboxylic acid]
CC(C)(C)c1ccc(-c2c(C(=O)O)n(Cc3cc(OCc4ccccc4)cc(-c4ccc(C(=O)O)cc4)c3)c3ccccc23)cc1 [Example 19, 1-({4′-carboxy-5-[(phenylmethyl)oxy]-3-biphenylyl}methyl)-3-[4-(1,1-dimethylethyl)phenyl]-1H-indole-2-carboxylic acid]
COCCOc1cc(Cn2c(C(=O)O)c(-c3ccc(C(C)(C)C)cc3)c3ccccc32)cc(-c2ccc(C(=O)O)cc2)c1 [Example 20]
COc1ccc(-c2c(C(=O)O)n(Cc3cc(-c4ccc(C(=O)O)cc4)ccc3C)c3ccccc23)cn1 [Example 21, 1-[(4′-carboxy-4-methyl-3-biphenylyl)methyl]-3-[6-(methyloxy)-3-pyridinyl]-1H-indole-2-carboxylic acid]
CC(C)(C)c1ccc(-c2c(C(=O)O)n(Cc3cc(O)cc(-c4ccc(C(=O)O)cc4)c3)c3ccccc23)cc1 [Example 22, 1-[(4′-carboxy-5-hydroxy-3-biphenylyl)methyl]-3-[4-(1,1-dimethylethyl)phenyl]-1H-indole-2-carboxylic acid]
CSc1ccc(-c2cccc(Cn3c(C(=O)O)c(-c4ccc(C(C)(C)C)cc4)c4ccccc43)c2)cc1 [Example 23, 3-[4-(1,1-dimethylethyl)phenyl]-1-{[4′-(methylthio)-3-biphenylyl]methyl}-1H-indole-2-carboxylic acid]
CC(C)(C)c1ccc(-c2c(C(=O)O)n(Cc3cccc(-c4cccc(S(C)(=O)=O)c4)c3)c3ccccc23)cc1 [Example 25, 3-[4-(1,1-dimethylethyl)phenyl]-1-{[3′-(methylsulfonyl)-3-biphenylyl]methyl}-1H-indole-2-carboxylic acid]
CC(C)(C)c1ccc(-c2c(C(=O)O)n(Cc3cccc(N4CCOCC4)c3)c3ccccc23)cc1 [Example 26, 3-[4-(1,1-dimethylethyl)phenyl]-1-{[3-(4-morpholinyl)phenyl]methyl}-1H-indole-2-carboxylic acid]
Cc1ccc(N2CCOCC2)cc1Cn1c(C(=O)O)c(-c2ccc(C(C)(C)C)cc2)c2ccccc21 [Example 27, 3-[4-(1,1-dimethylethyl)phenyl]-1-{[2-methyl-5-(4-morpholinyl)phenyl]methyl}-1H-indole-2-carboxylic acid]
Cc1ccc(-c2ccc(C(=O)N(C)C)cc2)cc1Cn1c(C(=O)O)c(-c2ccc(C(C)(C)C)cc2)c2ccccc21 [Example 28, 1-({4′-[(dimethylamino)carbonyl]-4-methyl-3-biphenylyl}methyl)-3-[4-(1,1-dimethylethyl)phenyl]-1H-indole-2-carboxylic acid]
